Legend:
HDAC = HDAC fluorimetric assay kit (AK-500, Biomol), HeLa nuclear extract; assay type: biochemical
Procedure: HDAC inhibitors is screened using an HDAC fluorimetric assay kit (AK-500, Biomol, Plymouth Meeting, Pa.).
Each assay is setup as follows: Defrost all kit components and kept on ice until use. […] Prepare dilutions of Trichostatin A (TSA, positive control) and tested compounds in assay buffer (5× of final concentration). Dilute Fluor de Lys™ Substrate in assay buffer to 100 uM (50 fold=2× final). Dilute Fluor de Lys™ developer concentrate 20-fold (e.g. 50 μl plus 950 μl Assay Buffer) in cold assay buffer. Second, dilute the 0.2 mM Trichostatin A 100-fold in the 1× Developer (e.g. 10 μl in 1 ml; final Trichostatin A concentration in the 1× Developer=2 μM; final concentration after addition to HDAC/Substrate reaction=1 μM). Add Assay buffer, dilute trichostatin A or test inhibitor to appropriate wells of the microtiter plate. Add diluted HeLa extract or other HDAC sample to all wells except for negative controls.

[1] = molecular target: T1, human Abl1 (Pro118-Ser553) (Homo sapiens, UniProt P00519); assay: HTScan tyrosine kinase assay, Abl1; assay type: biochemical; settings: read-out: ABL IC50
T1 construct: human Abl1 (Pro118-Ser553); GST (N); purchased Cell Signaling Technologies; host or cells: baculovirus expression system
T1 sequence (P00519 118-553): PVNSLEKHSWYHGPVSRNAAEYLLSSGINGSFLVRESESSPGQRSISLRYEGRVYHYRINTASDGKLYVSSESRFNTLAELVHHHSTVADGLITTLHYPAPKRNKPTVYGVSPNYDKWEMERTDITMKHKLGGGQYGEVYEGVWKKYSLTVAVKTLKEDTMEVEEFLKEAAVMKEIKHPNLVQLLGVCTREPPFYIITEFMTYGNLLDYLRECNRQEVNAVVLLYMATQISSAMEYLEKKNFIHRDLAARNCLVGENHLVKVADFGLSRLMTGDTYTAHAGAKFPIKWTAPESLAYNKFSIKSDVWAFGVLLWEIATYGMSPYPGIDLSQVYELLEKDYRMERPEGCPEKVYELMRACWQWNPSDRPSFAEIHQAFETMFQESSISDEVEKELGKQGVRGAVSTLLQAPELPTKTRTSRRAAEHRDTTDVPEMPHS
Procedure: (§1) The proteins are purified by one-step affinity chromatography using glutathione-agarose. An anti-phosphotyrosine monoclonal antibody, P-Tyr-100, is used to detect phosphorylation of biotinylated substrate peptides (Abl1 and Src, Biotin-Signal Transduction Protein (Tyr160); c-Kit, Biotinylated-KDR (Tyr996); PDGFR-β, Biotinylated-FLT3 (Tyr589)). […] Data are plotted using GraphPad Prism (v4.0a) and IC50's are calculated using a sigmoidal dose response curve fitting algorithm.
(§2) Each assay is setup as follows: 100 μl of 10 mM ATP is added to 1.25 ml 6 mM substrate peptide. […] The enzyme is immediately transferred from −80° C. to ice. The enzyme is allowed to thaw on ice. […] 25 μl of 2× ATP/substrate cocktail is added to 25 μl/well preincubated reaction cocktail/compound. The reaction plate is incubated at room temperature for 30 minutes. […] 100 μl/well primary antibody is added and the mixture is incubated at room temperature for 60 minutes. The plates are again washed three times with 200 μl/well PBS/T. Europium labeled anti-mouse IgG is diluted 1:500 in PBS/T with 1% BSA. 100 μl/well diluted antibody is added and the mixture is incubated at room temperature for 30 minutes. The plate is washed five times with 200 μl/well PBS/T. 100 μl/well DELFIA® Enhancement Solution is added and the mixture is incubated at room temperature for 5 minutes. 615 nm fluorescence emission is detected using an appropriate Time-Resolved Plate Reader.

[2] = molecular target: T2, full length human Src (Met1-Leu536) (Homo sapiens, UniProt P12931); assay: HTScan tyrosine kinase assay, Src; assay type: biochemical
T2 construct: full length human Src (Met1-Leu536); GST (N); purchased Cell Signaling Technologies; host or cells: baculovirus expression system
T2 sequence (P12931 whole entry): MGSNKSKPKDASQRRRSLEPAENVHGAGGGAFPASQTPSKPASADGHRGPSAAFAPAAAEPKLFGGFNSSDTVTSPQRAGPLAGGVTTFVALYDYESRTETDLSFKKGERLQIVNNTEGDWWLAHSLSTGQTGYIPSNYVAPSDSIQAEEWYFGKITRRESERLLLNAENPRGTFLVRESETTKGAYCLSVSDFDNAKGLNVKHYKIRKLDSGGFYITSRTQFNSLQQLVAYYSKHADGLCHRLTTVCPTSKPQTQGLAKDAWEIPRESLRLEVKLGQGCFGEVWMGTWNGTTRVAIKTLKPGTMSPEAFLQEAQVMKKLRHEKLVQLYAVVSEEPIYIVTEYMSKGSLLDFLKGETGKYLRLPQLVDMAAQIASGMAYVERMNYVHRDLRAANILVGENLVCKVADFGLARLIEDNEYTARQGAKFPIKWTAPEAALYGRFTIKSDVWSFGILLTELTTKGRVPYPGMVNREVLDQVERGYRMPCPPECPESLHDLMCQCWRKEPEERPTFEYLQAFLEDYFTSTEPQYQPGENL
Procedure: as §1, §2

[3] = molecular target: T3, human c-Kit (Thr544-Val976) (Homo sapiens, UniProt P10721); assay: HTScan tyrosine kinase assay, c-Kit; assay type: biochemical
T3 construct: human c-Kit (Thr544-Val976); GST (N); purchased Cell Signaling Technologies; host or cells: baculovirus expression system
T3 sequence (P10721 544-976): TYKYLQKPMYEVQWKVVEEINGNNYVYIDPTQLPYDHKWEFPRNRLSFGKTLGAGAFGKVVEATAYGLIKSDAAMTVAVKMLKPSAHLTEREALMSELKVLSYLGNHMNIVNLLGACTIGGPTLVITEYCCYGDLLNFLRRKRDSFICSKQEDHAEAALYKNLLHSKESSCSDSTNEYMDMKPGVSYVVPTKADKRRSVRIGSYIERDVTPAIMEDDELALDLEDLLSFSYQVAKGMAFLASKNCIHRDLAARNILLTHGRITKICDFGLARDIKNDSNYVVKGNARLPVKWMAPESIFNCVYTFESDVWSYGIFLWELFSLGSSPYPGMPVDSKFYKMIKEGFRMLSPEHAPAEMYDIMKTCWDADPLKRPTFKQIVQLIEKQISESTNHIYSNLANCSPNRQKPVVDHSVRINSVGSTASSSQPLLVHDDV
Procedure: as §1, §2

[4] = molecular target: T4, human PDGFR-beta (Arg561-Leu1106) (Homo sapiens, UniProt P09619); assay: HTScan tyrosine kinase assay, PDGFR-beta; assay type: biochemical; settings: read-out: PDGFb IC50
T4 construct: fragment (Arg561-Leu1106); GST (N); His6 (N); thrombin cleavage site (N); purchased Cell Signaling Technologies; host or cells: baculovirus expression system
T4 sequence (P09619 561-1106): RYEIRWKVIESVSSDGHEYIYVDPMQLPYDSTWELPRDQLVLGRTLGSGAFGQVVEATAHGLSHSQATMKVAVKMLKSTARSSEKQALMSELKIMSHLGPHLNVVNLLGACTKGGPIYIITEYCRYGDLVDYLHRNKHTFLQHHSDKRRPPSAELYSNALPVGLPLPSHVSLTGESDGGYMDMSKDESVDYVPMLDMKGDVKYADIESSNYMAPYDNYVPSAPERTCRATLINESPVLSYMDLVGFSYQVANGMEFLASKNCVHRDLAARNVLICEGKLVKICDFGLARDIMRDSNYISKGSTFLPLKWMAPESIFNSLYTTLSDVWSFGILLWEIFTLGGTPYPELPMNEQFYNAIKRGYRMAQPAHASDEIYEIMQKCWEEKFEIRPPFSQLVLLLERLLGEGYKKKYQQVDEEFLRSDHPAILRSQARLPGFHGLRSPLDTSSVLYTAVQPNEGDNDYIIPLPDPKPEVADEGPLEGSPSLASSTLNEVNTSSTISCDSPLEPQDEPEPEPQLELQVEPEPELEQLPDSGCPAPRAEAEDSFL
Procedure: as §1, §2

Lyn = Lyn (Homo sapiens, UniProt P07948); assay: Lyn assay (Table B); assay type: biochemical
Sequence of Lyn (P07948 whole entry, species assumed): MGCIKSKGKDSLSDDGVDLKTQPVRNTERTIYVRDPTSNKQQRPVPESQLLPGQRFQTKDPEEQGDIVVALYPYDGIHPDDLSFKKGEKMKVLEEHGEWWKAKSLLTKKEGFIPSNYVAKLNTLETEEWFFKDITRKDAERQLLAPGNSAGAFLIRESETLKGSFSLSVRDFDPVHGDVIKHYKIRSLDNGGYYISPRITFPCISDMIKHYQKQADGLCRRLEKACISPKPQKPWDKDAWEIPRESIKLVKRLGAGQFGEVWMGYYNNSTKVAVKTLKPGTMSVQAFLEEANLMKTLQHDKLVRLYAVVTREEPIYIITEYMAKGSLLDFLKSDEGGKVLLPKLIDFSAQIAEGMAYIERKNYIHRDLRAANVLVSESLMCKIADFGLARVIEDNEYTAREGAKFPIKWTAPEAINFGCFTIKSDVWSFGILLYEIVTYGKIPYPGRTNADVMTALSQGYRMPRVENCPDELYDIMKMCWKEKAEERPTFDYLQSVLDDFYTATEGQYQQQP

Lck = Lck (Homo sapiens, UniProt P06239); assay: Lck assay (Table B); assay type: biochemical
Sequence of Lck (P06239 whole entry, species assumed): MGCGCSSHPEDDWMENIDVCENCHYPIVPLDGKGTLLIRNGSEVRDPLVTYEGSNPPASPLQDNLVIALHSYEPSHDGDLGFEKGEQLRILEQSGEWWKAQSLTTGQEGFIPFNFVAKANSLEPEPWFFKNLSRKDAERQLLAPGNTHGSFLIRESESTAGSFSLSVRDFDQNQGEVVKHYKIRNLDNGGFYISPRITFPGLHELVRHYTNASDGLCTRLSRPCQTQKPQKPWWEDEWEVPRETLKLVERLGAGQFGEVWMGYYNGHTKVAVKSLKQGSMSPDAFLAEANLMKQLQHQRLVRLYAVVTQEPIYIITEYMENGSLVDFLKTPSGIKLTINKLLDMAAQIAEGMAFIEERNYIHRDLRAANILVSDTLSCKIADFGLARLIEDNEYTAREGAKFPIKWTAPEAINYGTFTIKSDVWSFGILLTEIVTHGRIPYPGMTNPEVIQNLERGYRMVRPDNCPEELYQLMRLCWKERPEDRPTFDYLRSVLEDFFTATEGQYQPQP

| IC50 (HDAC) | IC50 [1] | IC50 [2] | IC50 [3] | IC50 [4] | IC50 (Lyn) | IC50 (Lck) | melting point | Structure (SMILES) |
| --- | --- | --- | --- | --- | --- | --- | --- | --- |
| < 100 nM | < 100 nM | < 100 nM | < 100 nM | < 100 nM | < 100 nM | < 100 nM | 150.7 °C (dec.) | Cc1nc(NCCCCCCC(=O)NO)cc(Nc2ncc(C(=O)Nc3c(C)cccc3Cl)s2)n1 [Compound 24, N-(2-chloro-6-methylphenyl)-2-(6-(7-(hydroxyamino)-7-oxoheptylamino)-2-methylpyrimidin-4-ylamino)thiazole-5-carboxamide] |
| < 100 nM | < 100 nM | < 100 nM | < 100 nM | < 100 nM | < 100 nM | < 100 nM | – | Cc1nc(NCCNCCCCCC(=O)NO)cc(Nc2ncc(C(=O)Nc3c(C)cccc3Cl)s2)n1 [Compound 11, N-(2-chloro-6-methylphenyl)-2-(6-(2-(6-(hydroxyamino)-6-oxohexylamino)ethylamino)-2-methylpyrimidin-4-ylamino)thiazole-5-carboxamide] |
| > 10000 nM | < 100 nM | < 100 nM | – | – | – | – | – | Cc1nc(NCCNCC(=O)NO)cc(Nc2ncc(C(=O)Nc3c(C)cccc3Cl)s2)n1 [Compound 7, N-(2-chloro-6-methylphenyl)-2-(6-(2-(2-(hydroxyamino)-2-oxoethylamino)ethylamino)-2-methylpyrimidin-4-ylamino)thiazole-5-carboxamide] |
| 1000 to 10000 nM | < 100 nM | < 100 nM | – | – | – | – | – | Cc1nc(Nc2ncc(C(=O)Nc3c(C)cccc3Cl)s2)cc(N2CCN(CCCC(=O)NO)CC2)n1 [Compound 3, N-(2-chloro-6-methylphenyl)-2-(6-(4-(4-(hydroxyamino)-4-oxobutyl)piperazin-1-yl)-2-methylpyrimidin-4-ylamino)thiazole-5-carboxamide] |
| < 100 nM | < 100 nM | < 100 nM | < 100 nM | < 100 nM | < 100 nM | < 100 nM | – | Cc1nc(NCCCCCC(=O)NO)cc(Nc2ncc(C(=O)Nc3c(C)cccc3Cl)s2)n1 [Compound 23, N-(2-chloro-6-methylphenyl)-2-(6-(6-(hydroxyamino)-6-oxohexylamino)-2-methylpyrimidin-4-ylamino)thiazole-5-carboxamide] |
| 100 to 1000 nM | < 100 nM | < 100 nM | – | < 100 nM | – | – | – | Cc1nc(Nc2ncc(C(=O)Nc3c(C)cccc3Cl)s2)cc(N2CCN(CCCCC(=O)NO)CC2)n1 [Compound 4, N-(2-chloro-6-methylphenyl)-2-(6-(4-(5-(hydroxyamino)-5-oxopentyl)piperazin-1-yl)-2-methylpyrimidin-4-ylamino)thiazole-5-carboxamide] |
| 1000 to 10000 nM | < 100 nM | < 100 nM | – | < 100 nM | – | – | – | Cc1nc(Nc2ncc(C(=O)Nc3c(C)cccc3Cl)s2)cc(N2CCN(CC(=O)NO)CC2)n1 [Compound 1, N-(2-chloro-6-methylphenyl)-2-(6-(4-(2-(hydroxyamino)-2-oxoethyl)piperazin-1-yl)-2-methylpyrimidin-4-ylamino)thiazole-5-carboxamide] |
| 100 to 1000 nM | < 100 nM | < 100 nM | < 100 nM | < 100 nM | < 100 nM | – | – | Cc1nc(Nc2ncc(C(=O)Nc3c(C)cccc3Cl)s2)cc(N2CCN(CCCCCCC(=O)NO)CC2)n1 [Compound 6, N-(2-chloro-6-methylphenyl)-2-(6-(4-(7-(hydroxyamino)-7-oxoheptyl)piperazin-1-yl)-2-methylpyrimidin-4-ylamino)thiazole-5-carboxamide] |
| > 10000 nM | 100 to 1000 nM | 100 to 1000 nM | – | – | – | – | – | Cc1nc(N)cc(N(CC(=O)NO)c2ncc(C(=O)Nc3c(C)cccc3Cl)s2)n1 [Compound 30] |
| < 100 nM | < 100 nM | < 100 nM | < 100 nM | < 100 nM | < 100 nM | – | – | Cc1nc(Nc2ncc(C(=O)Nc3c(C)cccc3Cl)s2)cc(N2CCN(CCCCCC(=O)NO)CC2)n1 [Compound 5, N-(2-chloro-6-methylphenyl)-2-(6-(4-(6-(hydroxyamino)-6-oxohexyl)piperazin-1-yl)-2-methylpyrimidin-4-ylamino)thiazole-5-carboxamide] |
| 1000 to 10000 nM | < 100 nM | < 100 nM | – | < 100 nM | – | – | – | Cc1nc(Nc2ncc(C(=O)Nc3c(C)cccc3Cl)s2)cc(N2CCN(CCC(=O)NO)CC2)n1 [Compound 2, N-(2-Chloro-6-methylphenyl)-2-(6-(4-(3-(hydroxyamino)-3-oxopropyl)piperazin-1-yl)-2-methylpyrimidin-4-ylamino)thiazole-5-carboxamide] |

Source: patent US8426419B2, “Tyrosine kinase inhibitors containing a zinc binding moiety” (Curis, Inc., priority 2006, dated 2013)
